According to the supplement of paper PMC10307832:

Key:
Test in all cases: relative viability (nuclei count vs DMSO), 5 days (fraction); higher = more cells survive
[1] = compound: CC1=C(C=CC(=C1)[N+](=O)[O-])NS(=O)(=O)C2=C(C=CC(=C2)Cl)Cl [FH535] + C[C@]1(O)C[C@@H](c2nc(-c3ccc4ccc(-c5ccccc5)nc4c3)c3c(N)nccn32)C1 [Linsitinib] (partner 1 µM)
In short: (§1)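 A single step with final 0.05% Triton X-100, 1% formaldehyde and 1 ug/ml Hoechst fixed the cells and stained nuclei 5 days after treatment. Lung cancer cell lines in 1536-well plates had been treated by pin tool the day after seeding with one drug alone or a fixed anchor-drug dose plus five library-drug doses (not always all listed) in √10 steps, and nuclei were counted on 4× images. Relative viability is the ratio of nuclei in treated wells to nuclei in vehicle wells, taken as the median of duplicate plates.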

[2] = compound: CC1=C(C=CC(=C1)[N+](=O)[O-])NS(=O)(=O)C2=C(C=CC(=C2)Cl)Cl [FH535] + CC(C)C[C@H](NC(=O)[C@H](Cc1ccccc1)NC(=O)c1cnccn1)B(O)O [Bortezomib] (partner 0.002 µM)
In short: as §1

[3] = compound: CC1=C(C=CC(=C1)[N+](=O)[O-])NS(=O)(=O)C2=C(C=CC(=C2)Cl)Cl [FH535] + CS(=O)(=O)N1CCN(Cc2cc3nc(-c4cccc5[nH]ncc45)nc(N4CCOCC4)c3s2)CC1 [Pictilisib] (partner 1 µM)
In short: as §1

[4] = compound: CC1=C(C=CC(=C1)[N+](=O)[O-])NS(=O)(=O)C2=C(C=CC(=C2)Cl)Cl [FH535] + C[C@@H](Oc1cc(-c2cnn(C3CCNCC3)c2)cnc1N)c1c(Cl)ccc(F)c1Cl [Crizotinib] (partner 1 µM)
In short: as §1

[5] = compound: CC1=C(C=CC(=C1)[N+](=O)[O-])NS(=O)(=O)C2=C(C=CC(=C2)Cl)Cl [FH535] + Cc1nc(NC(=O)N2CCC[C@H]2C(N)=O)sc1-c1ccnc(C(C)(C)C(F)(F)F)c1 [Alpelisib] (partner 2 µM)
In short: as §1

| Cell Line | relative viability ([1]; first compound 0.04 µM) | relative viability ([1]; first compound 0.1265 µM) | relative viability ([1]; first compound 0.4 µM) | relative viability ([1]; first compound 1.265 µM) | relative viability ([2]; first compound 0.04 µM) | relative viability ([2]; first compound 0.1265 µM) | relative viability ([2]; first compound 0.4 µM) | relative viability ([2]; first compound 1.265 µM) | relative viability ([3]; first compound 0.04 µM) | relative viability ([3]; first compound 0.1265 µM) | relative viability ([3]; first compound 0.4 µM) | relative viability ([3]; first compound 1.265 µM) | relative viability ([4]; first compound 0.04 µM) | relative viability ([4]; first compound 0.1265 µM) | relative viability ([4]; first compound 0.4 µM) | relative viability ([4]; first compound 1.265 µM) | relative viability ([5]; first compound 0.04 µM) | relative viability ([5]; first compound 0.1265 µM) | relative viability ([5]; first compound 0.4 µM) | relative viability ([5]; first compound 1.265 µM) |
| --- | --- | --- | --- | --- | --- | --- | --- | --- | --- | --- | --- | --- | --- | --- | --- | --- | --- | --- | --- | --- |
| NCI-H2405 | 0.848 | 1.01 | 0.953 | 0.76 | 0.987 | 0.916 | 0.906 | 0.509 | 0.329 | 0.447 | 0.425 | 0.422 | 0.816 | 0.854 | 0.805 | 0.725 | 0.685 | 0.843 | 0.84 | 0.585 |
| NCI-H3122 | 0.989 | 1.07 | 0.977 | 0.895 | 0.979 | 0.976 | 0.989 | 0.919 | 0.583 | 0.585 | 0.57 | 0.564 | 0.261 | 0.282 | 0.253 | 0.285 | 0.715 | 0.782 | 0.829 | 0.745 |
| PC-3 [JPC-3] | 0.982 | 0.924 | 0.891 | 0.676 | 0.846 | 0.848 | 0.741 | 0.713 | 0.746 | 0.902 | 0.698 | 0.47 | 0.957 | 0.981 | 0.885 | 0.531 | 1 | 1.07 | 0.951 | 0.686 |
| PC-14 | 0.996 | 0.937 | 0.959 | 0.851 | 0.938 | 0.885 | 0.815 | 0.759 | 0.73 | 0.743 | 0.709 | 0.655 | 0.94 | 0.917 | 0.863 | 0.889 | 0.88 | 0.967 | 0.94 | 0.925 |
| RERF-LC-KJ | 0.872 | 0.896 | 0.854 | 0.752 | 1.11 | 1.11 | 1.11 | 0.788 | 0.49 | 0.534 | 0.478 | 0.392 | 0.856 | 0.826 | 0.86 | 0.671 | 0.739 | 0.822 | 0.921 | 0.751 |
| SK-LU-1 | 1.06 | 1.17 | 1.16 | 0.678 | 0.85 | 1.19 | 1.04 | 0.926 | 0.503 | 0.568 | 0.487 | 0.4 | 1.15 | 0.793 | 0.849 | 0.703 | 0.913 | 1.1 | 0.949 | 0.616 |
| SW 1573 | 0.621 | 0.785 | 0.855 | 0.703 | 0.957 | 1.12 | 1.07 | 0.862 | 0.485 | 0.612 | 0.471 | 0.465 | 0.64 | 0.751 | 0.865 | 0.683 | 0.726 | 0.693 | 0.623 | 0.689 |
| UMC-11 | 1.05 | 1.1 | 0.962 | 0.805 | 0.545 | 0.478 | 0.48 | 0.54 | 0.749 | 0.619 | 0.726 | 0.787 | 0.639 | 0.583 | 0.582 | 0.626 | 0.939 | 1.13 | 0.96 | 0.857 |
